From patent publication US20230093131A1, “ASSESSING AND TREATING ALCOHOL-ASSOCIATED LIVER DISEASE” (Mayo Foundation for Medical Education and Research, priority 2020, published 2023)
“Also recorded” adds a separate entry of the source.

Experiments:
[1] = test system: S1P receptors on primary human macrophages; test: EV-activated macrophage inflammation (AH EVs on PBMC-derived macrophages); assay type: cell-based
Procedure: FIG. 14: EV-activated macrophage inflammation is SIP-dependent. A) TNF-α and B) IL-1β responses in primary human macrophages from AH subjects treated with EVs derived from HD (HD EV) or AH (AH EV) for 4 hours showing a significant increase in both cytokines by AH-EVs.
PBMC-derived macrophages were treated with EVs derived from HD or AH subjects.

[2] = test system: BET proteins (BRD2, 3, 4 and T); settings: Seal et al., Bioorg. Med. Chem. Lett. 2012; cited from earlier work
NF-κB = test: ChIP-qPCR for NF-κB binding at CXCL super enhancer and CXCL1 promoter sites in LSECs; assay type: cell-based, human; settings: with and without TNFα, after inhibitor pretreatment, FIG. 20C, 20D
Procedure: FIG. 20: Bromodomain inhibitors suppress expression of CXCLs by inhibition of transcription factor binding at CXCL super enhancer and promoter sites. A) LSECs were pretreated with iBET151 ([…]) (n=4). CXCL1, 6, and 8 expression levels were assessed by qPCR. Expression levels were normalized to basal condition and log10 fold change values were plotted. One-way matched-pairs ANOVA analysis was performed with Post-hoc Dunnett's multiple comparison correction. B and C) ChIP-qPCR assays for BRD4 binding (B) or NF-κB binding (C) with and without TNFα stimulation was assessed at CXCL super-enhancer and CXCL1 promoter sites after pretreatment with iBET151. D and E) Same experiments were repeated with Celastrol. Enrichment for either CXCL1 promoter (Promoter) or CXCL super enhancer (Super Enhancer) sequence was examined. Sequence enrichment was normalized to input. Box plots show […] quartiles and third quartiles; whiskers show maximum and minimum values. Two-way matched-pairs ANOVA was performed on log-transformed input percentage, with Post-hoc Sidak's multiple comparisons correction (n=3).
LSECs were treated with appropriate conditions as outlined separately, and underwent CHIP according to Millipore High-Sens ChIP kit (Millipore MAGNA0025) manufacture protocols. […]

[3] = test system: alcohol fed/LPS C57BL/6 mice; test: Murine chronic alcohol feeding/LPS model with iBET151; assay type: in vivo, mouse
Procedure: FIG. 23: Bromodomain Inhibitor iBET151 Attenuates Liver CXCL Production and Neutrophil Infiltration in a Murine Alcohol Feeding/LPS Model. A) Schematic of alcohol feeding protocol. Mice were fed 5% alcohol diet or pair-fed control diet for 10 days. A subset of mice also received IP injection of iBET151 compound. Alcohol fed mice also received IP injection of LPS on day 11, 8 hours before sacrifice (n=6-8 in pair-fed groups, n=12-14 in alcohol fed groups). […] This response was attenuated by iBET151 injections. Expression levels were normalized to average expression of pair-fed control mice. C) IHC for MPO (neutrophil marker) is shown, with number of neutrophils per low power fields on y-axis. […] For all analysis, two-way ANOVA was performed on normalized expression values for qPCRs or cell counts for IHC staining or ALT values, with Post-hoc Tukey's multiple comparisons correction.
WT C57BL/6 mice (10-12 weeks) were purchased from Envigo Laboratories. Mice were subjected to chronic alcohol feeding to induce alcohol-induced liver injury with modification to the NIAAA model (see, e.g., Kong et al., Sci. Rep., 7(1):9292 (2017)). Briefly, mice were acclimated to liquid diet for 5 days, and were fed either 5% alcohol containing liquid diet or isocaloric pair-fed control diet. On Day 11, LPS (Invivogen tlrl-eblps) was intraperitoneally (IP) injected at 4 mg/kg to alcohol-fed mice. PBS of the same volume was given to pair-fed mice. All mice were sacrificed 8 hours later. A subset of mice, concurrent with alcohol or pair-feeding, was given injection of iBET151 daily. Mice were injected IP with iBET151 (6 mg/kg) in 10% Kleptose 2% DMSO solution or equal volume of carrier solution. On Day 11, drug or vehicle was administered 1 hour before LPS injection.
To generate an in vivo model with more exaggerated inflammation that could simulate human AH, a protocol of the chronic alcohol feeding model was modified by substituting the alcohol binge with a single LPS injection (FIG. 23A; see, also, Kong et al., Sci. Rep., 7(1):9292 (2017)). […] There was a significant increase in serum alanine aminotransferase (ALT) in alcohol fed/LPS mice (FIG. 23D). To assess the role of super enhancer activation in alcohol fed/LPS induced liver inflammation, the pan-BET inhibitor iBET151 was given to mice as daily IP injections alongside alcohol feeding or LPS injection.

LSECs = test: iBET151 LSEC cytotoxicity assay (IncuCyte); assay type: cell-based, human; settings: iBET151 and/or TNFα, ~30 minute intervals for 10 hours, FIG. 22
Procedure: FIG. 22: iBET151 LSEC cytotoxicity assay. IncuCyte system was utilized to image cells and assess for cytotoxicity. Dying cells (black arrows) are stained green by fluorescent dye, and green cells are counted for each low power image field. Cells were pretreated with control medium or iBET151 and/or TNFα, and quantification for the percentage of dead cells was done at ˜30 minutes intervals for 10 hours starting at 15 minutes. Images shown were acquired after 4 hours of incubation. […] Error bars indicate SD, n=3.

LSEC CXCL expression = test: CXCL expression (qPCR) in LSECs pretreated with inhibitor, with or without TNFα stimulation; assay type: cell-based, human
Procedure: A) LSECs were pretreated with iBET151 (0-50 M) (n=4). CXCL1, 6, and 8 expression levels were assessed by qPCR. Expression levels were normalized to basal condition and log10 fold change values were plotted. One-way matched-pairs ANOVA analysis was performed with Post-hoc Dunnett's multiple comparison correction.
LSECs were pretreated with iBET151 (0-50 M) (n=4). CXCL2, 3, and 5 expression levels were assessed by qPCR. Expression levels were normalized to basal condition and log10 fold change values were plotted. One-way matched-pairs ANOVA analysis was performed with Post-hoc Dunnett's multiple comparison correction. Error bars indicate SD.
Primary human LSECs were purchased from ScienCell (Cat #5000) and cultured using standard cell culture techniques. Where appropriate, LSECs underwent TNFα (Peprotech, 300-01A) stimulation at 20 ng/mL. For experiments with BRD4 inhibitor, iBET151 (Cayman Chemical 11181), low passage LSECs were plated at 70% confluency and cultured overnight. Next, LSECs were serum starved for 2 hours in low serum medium (0.5% FBS in basal endothelial medium (Lonza CC-3121)). Inhibitors were added at concentrations indicated to low-serum medium, and cells were incubated in inhibitor containing medium for 2 hours. After inhibitor treatment, medium change was performed with TNFα (Peprotech 300-01A) at 20 ng/mL or control low-serum medium for 90 minutes incubation. LSECs were then collected for analysis. […] RNA was extracted and qPCR performed for expression of CXCLs.

BRD4 = target: T1, BRD4 (Homo sapiens, UniProt O60885); test: ChIP-qPCR for BRD4 binding at CXCL super enhancer and CXCL1 promoter sites in LSECs; assay type: cell-based; settings: with and without TNFα, after inhibitor pretreatment, FIG. 20B, 20E
T1 construct: Soluble chromatin was aliquoted and immunoprecipitated with magnetic beads with antibodies for BRD4 (Abcam ab128874); host or cells: primary human liver sinusoidal endothelial cells (LSECs)
Procedure: B and C) ChIP-qPCR assays for BRD4 binding (B) or NF-κB binding (C) with and without TNFα stimulation was assessed at CXCL super-enhancer and CXCL1 promoter sites after pretreatment with iBET151. D and E) Same experiments were repeated with Celastrol. Enrichment for either CXCL1 promoter (Promoter) or CXCL super enhancer (Super Enhancer) sequence was examined. Sequence enrichment was normalized to input. Box plots show top quartiles and third quartiles; whiskers show maximum and minimum values. Two-way matched-pairs ANOVA was performed on log-transformed input percentage, with Post-hoc Sidak's multiple comparisons correction (n=3).
LSECs were treated with appropriate conditions as outlined separately, and underwent CHIP according to Millipore High-Sens ChIP kit (Millipore MAGNA0025) manufacture protocols. Briefly, cells were crosslinked with formaldehyde (1% final concentration) followed by glycine treatment (100 mM) for 5 minutes each. Cells were washed, collected, and pelleted with centrifugation, and were then lysed with cell lysis buffer. Cells were repelleted and underwent nuclear lysis with provided nuclear lysis buffer, and DNA was sheared with ultrasonification. Soluble chromatin was aliquoted and immunoprecipitated with magnetic beads with antibodies for BRD4 (Abcam ab128874), NF-κB (Cell signaling 8242S), or H3K9me3 (Abcam ab8898) with appropriate isotype controls. […]

AH patients = test: EV counts in AH patients after IL-22 treatment; assay type: in vivo, human
From the text: (§1) IL-22 is being investigated as a potential therapy in AH due to its hepatoprotective effects. To investigate if IL-22 can inhibit ethanol-induced EV release, HepG2Cyp2E1 (human hepatoma cells that can metabolize ethanol due to the enforced expression of cytochrome P450 2E1) cells were pretreated with IL-22 prior to the addition of ethanol. Subsequently, EVs were isolated from cell culture supernatants by UTC and quantified with NTA. Similarly, IL-22 reduced EV counts in AH patients after treatment.

HepG2Cyp2E1 cells = test: Ethanol-induced EV release from HepG2Cyp2E1 cells (UTC isolation, NTA count); assay type: cell-based, human; settings: HepG2Cyp2E1 cells pretreated with IL-22 prior to ethanol
From the text: as §1

[4] = alcohol fed/LPS mice, iBET151 6 mg/kg IP daily, FIG. 23B

In the case of `CCCCCCCCc1ccc(CCC(N)(CO)CO)cc1` [FTY720], the “AH EV-activated proinflammatory signaling in macrophages” value ([1]; PBMC-derived macrophages treated with AH EVs) is reported as “significantly inhibited”, the “TNF-α response to AH EVs” value ([1]; primary human macrophages from AH subjects, EVs for 4 hours, FTY 720 1 μM, FIG. 14A) is reported as “significantly reduced” and the “IL-1β response to AH EVs” value ([1]; primary human macrophages from AH subjects, EVs for 4 hours, FTY 720 1 μM, FIG. 14B) is reported as “significantly reduced”.

For `COc1cc2c(cc1-c1c(C)noc1C)ncc1[nH]c(=O)n([C@H](C)c3ccccn3)c12` [iBET151], the “activity against both bromodomains (BD) of all four BET proteins” value [2] is listed as “highly specific activity”, the “NF-κB binding at CXCL super enhancer and CXCL1 promoter sites (ChIP)” value (NF-κB) is listed as “trend for decreased” and the “cleaved caspase 3 level in liver (Western blot)” value ([3]; alcohol fed/LPS mice given iBET151, FIG. 26A) is listed as “decrease; also recorded: attenuated”. For the same molecule, the “hepatic expression of Cxcl1 (qPCR)” value [3, 4] was “significantly decreased”, the “hepatic expression of Cxcl2 (qPCR)” value [3, 4] was “significantly decreased” and the “neutrophil infiltration of the liver (Ly6g expression, MPO IHC)” value ([3]; alcohol fed/LPS mice, iBET151 6 mg/kg IP daily, FIG. 23B, 23C) was “decreased”. The “steatosis (BODIPY 493/503 stain)” value ([3]; alcohol fed/LPS mice, iBET151 6 mg/kg IP daily, FIG. 25, 6 mg/kg) was “decreased; also recorded: attenuated”, the “liver CXCL chemokine production/elevation (qPCR)” value ([3]; alcohol feeding and LPS injection, IP iBET151, figure legends FIG. 19, FIG. 23B) was “attenuated” and the “neutrophil marker Ly6g (qPCR)” value ([3]; alcohol/LPS mice, IP iBET151, figure legends FIG. 19, FIG. 23B) was “reduced; also recorded: attenuated”. For the same molecule, the “Malondialdehyde (MDA), lipid peroxidation, in mice livers” value ([3]; pair-fed or EtOH+LPS, vehicle or iBET151, FIG. 26B) was “no difference among treatment groups”, the “8-Hydroxy-2′-deoxyguanosine (8-OHdG), DNA oxidation, in mice livers” value ([3]; pair-fed or EtOH+LPS, vehicle or iBET151, FIG. 26C) was “no difference among treatment groups” and the “cytotoxicity (percentage of dead cells)” value (LSECs) was “without significant cytotoxicity; also recorded: no significant difference among treatment groups”. The “CXCL expression after TNFα stimulation” value (LSEC CXCL expression; HHSEC pretreated with varying amounts of iBET151, FIG. 18) was “suppresses”, the “CXCL2, 3, 5 expression (qPCR)” value (LSEC CXCL expression; LSECs pretreated with iBET151 (0-50 M), with TNFα and without TNFα, FIG. 21) was “linear trend for decreasing” and the “LSEC CXCL expression” value (LSEC CXCL expression; in vitro, in the presence of iBET151, FIG. 20A, 21A, iBET151 0-50 M, TNFα 20 ng/mL) was “significantly decreased”. For the same molecule, the “BRD4 occupancy/binding at CXCL super enhancer and CXCL1 promoter sites (ChIP)” value (BRD4) was “inhibitory effect”.

B1: IL-22: IL-22 polypeptide, hepatoprotective cytokine investigated as potential therapy in AH (protein, UniProt Q9GZX6 34-179, looked up)
Interleukin-22: APISSHCRLDKSNFQQPYITNRTFMLAKEASLADNNTDVRLIGEKLFHGVSMSERCYLMKQVLNFTLEEVLFPQSDRFQPYMQEVVPFLARLSNRLSTCHIEGDDLHIQRNVQKLKDTVKKLGESGEIKAIGELDLLFMSLRNACI
In the case of B1, the “EV counts in AH patients” value (AH patients) is reported as “reduced” and the “ethanol-induced EV release” value (HepG2Cyp2E1 cells) is reported as “significantly inhibited”.
